For data set [1] the following is noted: 101 kPa, Liquid, Vibrating tube method.
A short description of data set [2]: refractive index (Na D-line) (dimensionless). As to conditions: 101.33 kPa, Liquid, Standard Abbe refractometry.
Data set [3] can be described thus: xn = mol fraction of the nth substance listed. To be noted: 101 kPa, Liquid, Vibrating tube method, x2 = 0.
Data set [4] is described as follows: refractive index (Na D-line) (dimensionless); xn = mol fraction of the nth substance listed. As to conditions: 101 kPa, Liquid, Standard Abbe refractometry, x2 = 0.

Mass density and refractive index data for eleven molecules are collected here from the NIST ThermoML archive (doi:10.1016/j.jct.2013.12.025).

Each structure is given as a SMILES string. Numbers after ± are expanded uncertainties.

As a reminder, the mass density is mass per unit of volume. Broadly, the refractive index is the speed of light in vacuum divided by its phase velocity in the sample. As to `C=C[Si](C)(C)O[Si](C)(C)C=C` [1,3-diethenyl-1,1,3,3-tetramethyldisiloxane], the mass density in data set [1] (283.15 K) is 822.67 ± 1 kg/m3; in data set [1] (288.15 K), 817.77 ± 1 kg/m3; in data set [1] (293.15 K), 812.92 ± 1 kg/m3; in data set [1] (298.15 K), 808 ± 1 kg/m3; in data set [1] (303.15 K), 803.07 ± 1 kg/m3. Also, the refractive index in data set [2] (283.15 K) came to 1.41766 ± 0.00032; in data set [2] (288.15 K), 1.415 ± 0.00032; in data set [2] (293.15 K), 1.41236 ± 0.00032; in data set [2] (298.15 K), 1.4097 ± 0.00032; in data set [2] (303.15 K), 1.40707 ± 0.00032.
Take `COc1ccccc1` [anisole]: the mass density in data set [1] (283.15 K) is 1003.3 ± 1 kg/m3; in data set [1] (288.15 K), 998.62 ± 1 kg/m3; in data set [1] (293.15 K), 994.01 ± 1 kg/m3; in data set [1] (298.15 K), 989.32 ± 1 kg/m3; in data set [1] (303.15 K) it was 984.59 ± 1 kg/m3. In addition, the refractive index in data set [2] (283.15 K) is on record as 1.52242 ± 0.00031; in data set [2] (288.15 K) it was 1.51985 ± 0.00031; in data set [2] (293.15 K), 1.51724 ± 0.00031; in data set [2] (298.15 K), 1.5146 ± 0.00032; in data set [2] (303.15 K), 1.51191 ± 0.00032.
Turning to `COc1ccccc1` [anisole] + C=C[Si](C)(C)O[Si](C)(C)C=C, the mass density was 1003.3 ± 1 kg/m3 in data set [3] (283.15 K); 998.62 ± 1 kg/m3 in data set [3] (288.15 K); 994.01 ± 1 kg/m3 in data set [3] (293.15 K); 989.32 ± 1 kg/m3 in data set [3] (298.15 K); 984.59 ± 1 kg/m3 in data set [3] (303.15 K). Also, the refractive index was 1.52242 ± 0.00031 in data set [4] (283.15 K); 1.51985 ± 0.00031 in data set [4] (288.15 K); 1.51724 ± 0.00031 in data set [4] (293.15 K); 1.5146 ± 0.00032 in data set [4] (298.15 K); 1.51191 ± 0.00032 in data set [4] (303.15 K).
On to `Clc1ccccc1` [chlorobenzene], for which the mass density in data set [1] (283.15 K) is reported as 1117.29 ± 1 kg/m3; in data set [1] (288.15 K), 1111.89 ± 1 kg/m3; in data set [1] (293.15 K) it was 1106.55 ± 1 kg/m3; in data set [1] (298.15 K), 1101.16 ± 1 kg/m3; in data set [1] (303.15 K), 1095.79 ± 1 kg/m3. Further, the refractive index was 1.52992 ± 0.00032 in data set [2] (283.15 K); 1.52722 ± 0.00032 in data set [2] (288.15 K); 1.52446 ± 0.00032 in data set [2] (293.15 K); 1.52168 ± 0.00032 in data set [2] (298.15 K); 1.51893 ± 0.00032 in data set [2] (303.15 K).
Regarding `Clc1ccccc1` [chlorobenzene] + C=C[Si](C)(C)O[Si](C)(C)C=C, the mass density in data set [3] (283.15 K) is 1117.29 ± 1 kg/m3; in data set [3] (288.15 K), 1111.89 ± 1 kg/m3; in data set [3] (293.15 K), 1106.55 ± 1 kg/m3; in data set [3] (298.15 K) it was 1101.16 ± 1 kg/m3; in data set [3] (303.15 K), 1095.79 ± 1 kg/m3. For the same molecule, the refractive index was found to be 1.52992 ± 0.00032 in data set [4] (283.15 K); 1.52722 ± 0.00032 in data set [4] (288.15 K); 1.52446 ± 0.00032 in data set [4] (293.15 K); 1.52168 ± 0.00032 in data set [4] (298.15 K); 1.51893 ± 0.00032 in data set [4] (303.15 K).
For `CCc1ccccc1` [ethylbenzene], the mass density in data set [1] (283.15 K) came to 875.69 ± 1 kg/m3; in data set [1] (288.15 K), 871.3 ± 1 kg/m3; in data set [1] (293.15 K), 866.9 ± 1 kg/m3; in data set [1] (298.15 K), 862.58 ± 1 kg/m3; in data set [1] (303.15 K), 858.16 ± 1 kg/m3. In addition, the refractive index amounted to 1.50118 ± 0.00032 in data set [2] (283.15 K); 1.49845 ± 0.00032 in data set [2] (288.15 K); 1.49575 ± 0.00032 in data set [2] (293.15 K); 1.49301 ± 0.00032 in data set [2] (298.15 K); 1.4903 ± 0.00032 in data set [2] (303.15 K).
With `CCc1ccccc1` [ethylbenzene] + C=C[Si](C)(C)O[Si](C)(C)C=C, the mass density is recorded as 875.69 ± 1 kg/m3 in data set [3] (283.15 K); 871.3 ± 1 kg/m3 in data set [3] (288.15 K); 866.9 ± 1 kg/m3 in data set [3] (293.15 K); 862.58 ± 1 kg/m3 in data set [3] (298.15 K); 858.16 ± 1 kg/m3 in data set [3] (303.15 K). In addition, the refractive index in data set [4] (283.15 K) turned out to be 1.50118 ± 0.00032; in data set [4] (288.15 K), 1.49845 ± 0.00032; in data set [4] (293.15 K) it was 1.49575 ± 0.00032; in data set [4] (298.15 K), 1.49301 ± 0.00032; in data set [4] (303.15 K) it was 1.4903 ± 0.00032.
For `Fc1ccccc1` [fluorobenzene], the mass density is given as 1036.89 ± 1 kg/m3 in data set [1] (283.15 K); 1030.93 ± 1 kg/m3 in data set [1] (288.15 K); 1024.96 ± 1 kg/m3 in data set [1] (293.15 K); 1019.07 ± 1 kg/m3 in data set [1] (298.15 K); 1013.03 ± 1 kg/m3 in data set [1] (303.15 K). For the same molecule, the refractive index in data set [2] (283.15 K) turned out to be 1.47152 ± 0.00032; in data set [2] (288.15 K), 1.46859 ± 0.00032; in data set [2] (293.15 K) it was 1.46571 ± 0.00032; in data set [2] (298.15 K), 1.46283 ± 0.00032; in data set [2] (303.15 K), 1.45989 ± 0.00032.
With `Fc1ccccc1` [fluorobenzene] + C=C[Si](C)(C)O[Si](C)(C)C=C, the mass density in data set [3] (283.15 K) is on record as 1036.89 ± 1 kg/m3; in data set [3] (288.15 K) it was 1030.93 ± 1 kg/m3; in data set [3] (293.15 K), 1024.96 ± 1 kg/m3; in data set [3] (298.15 K), 1019.07 ± 1 kg/m3; in data set [3] (303.15 K) it was 1013.03 ± 1 kg/m3. Moreover, the refractive index was 1.47152 ± 0.00032 in data set [4] (283.15 K); 1.46859 ± 0.00032 in data set [4] (288.15 K); 1.46571 ± 0.00032 in data set [4] (293.15 K); 1.46283 ± 0.00032 in data set [4] (298.15 K); 1.45989 ± 0.00032 in data set [4] (303.15 K).
For the molecule `O=[N+]([O-])c1ccccc1` [nitrobenzene], the mass density was 1212.99 ± 1 kg/m3 in data set [1] (283.15 K); 1208.01 ± 1 kg/m3 in data set [1] (288.15 K); 1203.05 ± 1 kg/m3 in data set [1] (293.15 K); 1198.2 ± 1 kg/m3 in data set [1] (298.15 K); 1193.25 ± 1 kg/m3 in data set [1] (303.15 K). Moreover, the refractive index in data set [2] (283.15 K) came out at 1.55729 ± 0.00031; in data set [2] (288.15 K), 1.55485 ± 0.00031; in data set [2] (293.15 K), 1.55234 ± 0.00031; in data set [2] (298.15 K), 1.54992 ± 0.00031; in data set [2] (303.15 K), 1.54746 ± 0.00031.
Take `O=[N+]([O-])c1ccccc1` [nitrobenzene] + C=C[Si](C)(C)O[Si](C)(C)C=C: the mass density in data set [3] (283.15 K) stood at 1212.99 ± 1 kg/m3; in data set [3] (288.15 K), 1208.01 ± 1 kg/m3; in data set [3] (293.15 K), 1203.05 ± 1 kg/m3; in data set [3] (298.15 K) it was 1198.2 ± 1 kg/m3; in data set [3] (303.15 K), 1193.25 ± 1 kg/m3. The refractive index in data set [4] (283.15 K) is 1.55729 ± 0.00031; in data set [4] (288.15 K), 1.55485 ± 0.00031; in data set [4] (293.15 K), 1.55234 ± 0.00031; in data set [4] (298.15 K), 1.54992 ± 0.00031; in data set [4] (303.15 K), 1.54746 ± 0.00031.
